Laboratory results: US20020128231A1 (priority 2000, published 2002)

How the values were obtained:
[1] = target: P-glycoprotein (Homo sapiens, UniProt P08183); test: Rhodamine 123 transport assay across HCT-8 cell monolayers; details: compound 10 μM, Rh123 15 μM, HCT-8 cells; for inhibition at 10 μM: human, HCT-8 cell monolayers in Transwell dishes, probe Rhodamine 123 (15 μM), % Inhibition of R123 Transport
Protocol: The human ileocecal adenocarcinoma cell line HCT-8 was grown in RPMI-1640 medium supplemented with 10% horse serum, 1 mM sodium pyruvate and 0.01 mg/ml gentamicin. All cells were maintained in a humidified atmosphere with 5% CO2 at 37° C.
Rhodamine 123 transport was examined as previously described (Hunter J. et al., Simmons, Br. J. Cancer, 64: 437444 (1991); Kim A. E. et al., J. Pharm. Exp. Ther., 286: 1439-1445 (1998)) using HCT-8 cells. Particularly, cells were grown in 6 well Corning Transwell dishes until a tight monolayer was formed. Rh123 was added at a final concentration of 15 μM to the basal or apical compartments and 200 μl samples were taken at the indicated times from the opposite chamber. Fluorescence of Rh123 in the media samples was measured using a fluorescence plate reader with an excitation wavelength of 485 nm and an emission wavelength of 530 nm.

[2] = tested on: MDR1-expressing NIH 3T3 cells; test: Cytotoxicity (MTT) assay: modulation of drug cytotoxicity in multidrug resistant cells; details: compound 5 μM; 50 nM doxorubicin; 72 hours; MTT
Protocol: Cytotoxicity assays were performed with many of the compounds of Formula I to verify their usefulness as inhibitors of P-gp.
Parental NIH3T3 Swiss mouse embryo cell line was obtained from American Type Culture Collection and was grown in Dulbecco's Modified Eagles Medium supplemented with 4.5 g/L glucose, 10% fetal bovine serum, 2 mM L-glutamine, and 0.01 mg/ml gentamicin. […] All cells were maintained in a humidified atmosphere with 5% CO2 at 37° C.
Parental and MDR1-expressing NIH 3T3 cells were plated at a density of 2.5-3.0×10^3 cells/well in 96-well microtiter plates and were exposed to 50 nM of doxoriubicin, 7.5 nM vinblastine, 75 nM colchicine or 300 nM paclitaxel for 72 hours. Cell viability was determined with the colorimetric MTT (3-(4,5-dimethylthiazol-2-yl)-2,5-diphenyl tetrazolium) assay as previously described (Mosmann T., J. Immunol. Methods, 65: 55-63 (1983); Hansen M. B. et al., J. Immunol. Methods, 119: 203-210 (1989)) and the absorbance was measured at 570 nm.

P-glycoprotein, sequence (P08183 whole entry): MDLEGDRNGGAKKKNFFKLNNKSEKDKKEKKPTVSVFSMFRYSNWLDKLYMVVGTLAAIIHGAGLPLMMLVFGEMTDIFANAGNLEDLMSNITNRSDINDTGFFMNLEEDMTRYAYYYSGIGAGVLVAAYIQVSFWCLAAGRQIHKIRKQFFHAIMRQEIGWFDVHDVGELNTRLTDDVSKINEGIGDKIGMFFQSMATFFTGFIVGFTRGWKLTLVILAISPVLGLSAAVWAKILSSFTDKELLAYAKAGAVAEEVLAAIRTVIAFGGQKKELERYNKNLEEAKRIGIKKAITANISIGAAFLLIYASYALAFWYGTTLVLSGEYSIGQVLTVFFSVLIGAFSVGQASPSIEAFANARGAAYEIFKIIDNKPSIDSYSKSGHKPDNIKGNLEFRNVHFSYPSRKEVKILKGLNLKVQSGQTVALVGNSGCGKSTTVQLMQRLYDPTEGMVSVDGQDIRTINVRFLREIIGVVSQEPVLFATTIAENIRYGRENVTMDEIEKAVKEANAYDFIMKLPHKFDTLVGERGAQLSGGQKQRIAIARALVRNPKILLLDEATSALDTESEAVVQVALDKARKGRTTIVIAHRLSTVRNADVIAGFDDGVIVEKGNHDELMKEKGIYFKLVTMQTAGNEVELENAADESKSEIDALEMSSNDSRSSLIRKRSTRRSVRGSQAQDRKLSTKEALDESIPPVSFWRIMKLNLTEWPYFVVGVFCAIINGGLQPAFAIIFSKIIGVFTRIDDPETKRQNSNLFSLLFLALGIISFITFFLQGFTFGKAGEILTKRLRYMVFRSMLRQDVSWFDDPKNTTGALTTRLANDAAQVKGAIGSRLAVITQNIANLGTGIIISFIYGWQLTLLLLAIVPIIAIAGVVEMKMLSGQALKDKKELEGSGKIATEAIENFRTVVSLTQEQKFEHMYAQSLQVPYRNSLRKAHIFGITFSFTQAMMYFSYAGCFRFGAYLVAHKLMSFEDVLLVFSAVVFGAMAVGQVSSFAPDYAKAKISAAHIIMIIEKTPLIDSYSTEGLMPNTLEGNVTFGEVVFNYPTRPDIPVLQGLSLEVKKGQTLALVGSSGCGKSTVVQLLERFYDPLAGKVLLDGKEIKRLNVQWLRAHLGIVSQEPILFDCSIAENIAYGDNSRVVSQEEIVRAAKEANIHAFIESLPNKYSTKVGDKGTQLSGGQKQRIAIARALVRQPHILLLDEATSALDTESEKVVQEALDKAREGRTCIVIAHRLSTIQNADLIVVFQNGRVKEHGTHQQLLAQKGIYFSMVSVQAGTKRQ

COc1ccc(C2c3cc(OC)c(OC)cc3C(CC(=O)N3CCN(Cc4ccccc4)CC3)C2C(=O)N2CCN(Cc3ccccc3)CC2)cc1OC (stereo not shown) [AV-164, 2-[2-(4-benzylpiperazine-1-carbonyl)-3-(3,4-dimethoxyphenyl)-5,6-dimethoxy-indan-1-yl]-1-(4-benzylpiperazine-1-yl)-ethanone]
inhibition at 10 μM [1]: 85.1% | Modulation of Drug Resistance (percentage increase in doxorubicin cytotoxicity in the presence of the compounds versus in their absence) [2]: 70.03%

CCCOc1ccc(C2c3cc(OCCC)c(OCCC)cc3C(CC(=O)N3CCN(c4ccccc4OCC)CC3)C2C(=O)N2CCN(c3ccccc3OCC)CC2)cc1OCCC (stereo not shown) [AV-254, 2-{3-(3,4-Dipopoxy-phenyl)-2-[4-(2-ethoxy-phenyl)-piperazine-1-carbonyl]-5,6-dipropoxy-indan-1-yl}-1-[4-(2-ethoxy-phenyl)-piperazin-1-yl]-ethanone]
% Inhibition of R123 Transport [1]: 18.70% | Modulation of Drug Resistance (percentage increase in doxorubicin cytotoxicity in the presence of the compounds versus in their absence) [2]: 4.1%

2-{3-(3,4-dimethoxyphenyl)-5,6-dimethoxy-2-[4-(4-nitrophenyl)-piperazin-1-carbonyl]-indan-1-yl}-1-[4-(4-nitrophenyl)-1-yl]-ethanone [AV-196]
% Inhibition of R123 Transport [1]: 64.4% | Modulation of Drug Resistance (percentage increase in doxorubicin cytotoxicity in the presence of the compounds versus in their absence) [2]: 41.47%

COCC1C(CCN2CCN(c3ccc(OC)cc3)CC2)c2cc(OC)c(OC)cc2C1c1ccc(OC)c(OC)c1 (stereo not shown) [AV-199, 1-{-2-[3-(3,4-dimethoxyphenyl)-5,6-dimethoxy-2-methoxymethyl-indan-1-yl]-ethyl}-4-(4-methoxyphenyl)-piperazine]
inhibition at 10 μM [1]: 84% | Modulation of Drug Resistance (percentage increase in doxorubicin cytotoxicity in the presence of the compounds versus in their absence) [2]: 61.63%

CCOc1ccc(C2c3cc(OCC)c(OCC)cc3C(CC(=O)N3CCN(c4ccccc4OCC)CC3)C2C(=O)N2CCN(c3ccccc3OCC)CC2)cc1OCC (stereo not shown) [AV-253]
% Inhibition of R123 Transport [1]: 92.03% | Modulation of Drug Resistance (percentage increase in doxorubicin cytotoxicity in the presence of the compounds versus in their absence) [2]: 19.8%

COc1ccc(C2c3cc(OC)c(OC)cc3C(CC(=O)N(C)C)C2C(=O)N(C)C)cc1OC (stereo not shown) [AV-181, 1-(3,4-dimethoxyphenyl)-3-dimethylcarbamoylmethyl-5,6-dimethoxy-indan-2-carboxylic acid dimethyl amide]
inhibition at 10 μM [1]: 6% | Modulation of Drug Resistance (percentage increase in doxorubicin cytotoxicity in the presence of the compounds versus in their absence) [2]: 6.13%

COCC1C(CCO)c2cc(OC)c(OC)cc2C1c1ccc(OC)c(OC)c1 (stereo not shown) [AV-176, 2-[3-[3,4-dimethoxyphenyl)-5,6-dimethoxy-2-methoxymethyl-indan-1-yl]-ethanol]
inhibition at 10 μM [1]: 11.5% | Modulation of Drug Resistance (percentage increase in doxorubicin cytotoxicity in the presence of the compounds versus in their absence) [2]: 8.65%

COc1cc(C2c3cc(O)c(OC)cc3C(CC(=O)N3CCC(Cc4ccccc4)CC3)C2C(=O)N2CCC(Cc3ccccc3)CC2)ccc1O (single isomer, unassigned) [AV-251-1]
% Inhibition of R123 Transport [1]: 79.26% | Modulation of Drug Resistance (percentage increase in doxorubicin cytotoxicity in the presence of the compounds versus in their absence) [2]: −6.9%

CCCOc1ccc(C2c3cc(OCCC)c(OC)cc3C(CC(=O)N3CCN(c4ccccc4OCC)CC3)C2C(=O)N2CCN(c3ccccc3OCC)CC2)cc1OC (single isomer, unassigned) [AV-239-2]
% Inhibition of R123 Transport [1]: 91.38% | Modulation of Drug Resistance (percentage increase in doxorubicin cytotoxicity in the presence of the compounds versus in their absence) [2]: 60%

CCOc1ccccc1N1CCN(CCC2c3cc(OC)c(OC)cc3C(c3ccc(OC)c(OC)c3)C2CN2CCN(c3ccccc3OCC)CC2)CC1 (stereo not shown) [AV-184, 2-{3-(3,4-dimethoxyphenyl)-5,6-dimethoxy-2-[4-(2-ethoxyphenyl)-piperazin-1-yl-methyl]-indan-1-yl}-1-[4-(2-ethoxyphenyl)-piperazin-1-yl]-ethane]
inhibition at 10 μM [1]: 53.7% | Modulation of Drug Resistance (percentage increase in doxorubicin cytotoxicity in the presence of the compounds versus in their absence) [2]: 50.58%

COCC1C(CCN2CCN(c3ccc(F)cc3)CC2)c2cc(OC)c(OC)cc2C1c1ccc(OC)c(OC)c1 (stereo not shown) [AV-201, 1-{-2-[3-(3,4-dimethoxyphenyl)-5,6-dimethoxy-2-methoxymethyl-indan-1-yl]-ethyl}-4-(4-fluorophenyl)-piperazine]
inhibition at 10 μM [1]: 83.8% | Modulation of Drug Resistance (percentage increase in doxorubicin cytotoxicity in the presence of the compounds versus in their absence) [2]: 66.44%

COc1ccc(C2c3cc(OC)c(OC)cc3C(CC(=O)N3CCN(CC=Cc4ccccc4)CC3)C2C(=O)N2CCN(CC=Cc3ccccc3)CC2)cc1OC (stereo not shown) [AV-172, 2-{3-(3,4-dimethoxyphenyl)-5,6-dimethoxy-2-[4-(3-phenylallyl)-piperazine-1-carbonyl]-indan-1-yl}-1-[4-(3-phenylallyl)piperazine-1-yl]-ethanone]
inhibition at 10 μM [1]: 86.7% | Modulation of Drug Resistance (percentage increase in doxorubicin cytotoxicity in the presence of the compounds versus in their absence) [2]: 68.57%

CCCN(CCC)C(=O)CC1c2cc(OC)c(OC)cc2C(c2ccc(OC)c(OC)c2)C1C(=O)N(CCC)CCC (stereo not shown) [AV-189, 1-(3,4-dimethoxyphenyl)-3-dipropylcarbamoylmethyl-5,6-dimethoxy-indan-2-carboxylic acid dipropyl amide]
inhibition at 10 μM [1]: 60% | Modulation of Drug Resistance (percentage increase in doxorubicin cytotoxicity in the presence of the compounds versus in their absence) [2]: 64.78%

COCC1C(CCN2CCN(c3ccccc3)CC2)c2cc(OC)c(OC)cc2C1c1ccc(OC)c(OC)c1 (stereo not shown) [AV-198, 1-{-2-[3-(3,4-dimethoxyphenyl)-5,6-dimethoxy-2-methoxymethyl-indan-1-yl]-ethyl}-4-phenylpiperazine]
inhibition at 10 μM [1]: 84.7% | Modulation of Drug Resistance (percentage increase in doxorubicin cytotoxicity in the presence of the compounds versus in their absence) [2]: 58.65%

COc1ccc(C2c3cc(OC)c(OC)cc3C(CCN3CCN(c4ccc(Cl)cc4)CC3)C2CN2CCN(c3ccc(Cl)cc3)CC2)cc1OC (stereo not shown) [AV-186, 2-{3-(3,4-dimethoxyphenyl)-5,6-dimethoxy-2-[4-(4-chlorophenyl)-piperazin-1-yl-methyl]-indan-1-yl}-1-[4-(4-chlorophenyl)-piperazin-1-yl]-ethane]
inhibition at 10 μM [1]: 65.8% | Modulation of Drug Resistance (percentage increase in doxorubicin cytotoxicity in the presence of the compounds versus in their absence) [2]: 64.87%

CCCCCOc1ccc(C2c3cc(OCCCCC)c(OC)cc3C(CC(=O)N3CCN(c4ccccc4OCC)CC3)C2C(=O)N2CCN(c3ccccc3OCC)CC2)cc1OC (stereo not shown) [AV-252, 2-[2-[4-(2-Ethoxy-phenyl)-piperazine-1-carbonyl]-6-methoxy-3-(3-methoxy-4-pentyloxy-phenyl)-5-pentyloxy-indan-1-yl]-1-[4-(2-ethoxy-phenyl)-piperazin-1-yl]ethanone]
inhibition at 10 μM [1]: 64.2% | Modulation of Drug Resistance (percentage increase in doxorubicin cytotoxicity in the presence of the compounds versus in their absence) [2]: −0.5%

COc1ccc(C2c3cc(OC)c(OC)cc3C(CC(=O)N(CC(C)C)CC(C)C)C2C(=O)N(CC(C)C)CC(C)C)cc1OC (stereo not shown) [AV-191, 1-[(diisobutylcarbamoyl)methyl]-3-(3,4-dimethoxyphenyl)-5,6-dimethoxy-indan-2-carboxylic acid diisobutylamide]
inhibition at 10 μM [1]: 64.9% | Modulation of Drug Resistance (percentage increase in doxorubicin cytotoxicity in the presence of the compounds versus in their absence) [2]: 63.49%

COc1ccc(C2c3cc(OC)c(OC)cc3C(CCNC(=O)c3ccc(C(C)(C)C)cc3)C2CNC(=O)c2ccc(C(C)(C)C)cc2)cc1OC (stereo not shown) [AV-259]
% Inhibition of R123 Transport [1]: 84.87% | Modulation of Drug Resistance (percentage increase in doxorubicin cytotoxicity in the presence of the compounds versus in their absence) [2]: 3.9%

COCC1C(CCN2CCN(CC=Cc3ccccc3)CC2)c2cc(OC)c(OC)cc2C1c1ccc(OC)c(OC)c1 (stereo not shown) [AV-204, 1-{2-[3-(3,4-dimethoxyphenyl)-5,6-dimethoxy-2-methoxymethyl-indan-1-yl]-ethyl}-4-(3-phenylallyl)-piperazine]
Modulation of Drug Resistance (percentage increase in doxorubicin cytotoxicity in the presence of the compounds versus in their absence) [2]: 64.60%
